Patent US20150352108A1, “AMINO-PYRIMIDINE COMPOUNDS AS INHIBITORS OF TBK1 AND/OR IKK EPSILON” (Alzheimer's Institute of America, priority 2009, published 2015)
Read-outs that look alike come from different tables or passages of the source.

What was measured:
[1] = molecular target: T1, TBK1 (Homo sapiens, UniProt Q9UHD2); assay: In-vitro TBK1 kinase assay ([γ33]ATP filter-plate); type: biochemical
T1 construct: His-tag; made in house; host or cells: Sf9 insect cells
T1 sequence (Q9UHD2 1-729): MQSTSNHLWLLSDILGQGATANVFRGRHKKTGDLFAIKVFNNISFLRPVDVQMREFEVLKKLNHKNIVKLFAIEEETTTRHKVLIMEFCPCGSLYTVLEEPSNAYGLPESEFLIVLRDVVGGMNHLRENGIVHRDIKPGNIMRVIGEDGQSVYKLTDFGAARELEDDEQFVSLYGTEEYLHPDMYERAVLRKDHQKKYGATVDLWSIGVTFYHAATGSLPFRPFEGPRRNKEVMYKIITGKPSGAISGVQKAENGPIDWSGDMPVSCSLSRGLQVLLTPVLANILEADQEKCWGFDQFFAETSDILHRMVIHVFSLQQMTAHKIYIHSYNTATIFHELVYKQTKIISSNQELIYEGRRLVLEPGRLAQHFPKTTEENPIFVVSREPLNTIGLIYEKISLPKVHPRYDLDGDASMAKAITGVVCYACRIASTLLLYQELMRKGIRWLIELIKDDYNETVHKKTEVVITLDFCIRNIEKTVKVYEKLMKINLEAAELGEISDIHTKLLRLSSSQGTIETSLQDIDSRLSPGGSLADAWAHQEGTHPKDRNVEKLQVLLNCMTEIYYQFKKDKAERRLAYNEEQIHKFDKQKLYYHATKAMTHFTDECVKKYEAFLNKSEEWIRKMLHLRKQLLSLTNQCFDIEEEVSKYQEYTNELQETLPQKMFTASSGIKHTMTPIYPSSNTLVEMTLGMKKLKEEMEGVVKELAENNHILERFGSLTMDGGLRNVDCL
Description: IKKε enzyme was produced as a His-tag fusion in Sf9 cells and used at a final concentration of […]. TBK1 enzyme was produced as a His-tag fusion in Sf9 cells and used at a final concentration of 0.1 μg/ml. Kinase reactions were carried out in reaction buffer using myelin basic protein (Millipore, Ballerica, Mass.) or casein (Sigma, St. Louis, Mo.) as substrate at an ATP concentration equal to twice the Km,ATP value for each enzyme, corresponding to 32 μM ATP for IKKε and 60 μM ATP for TBK1, in the presence of 0.3 μCi [γ^33]ATP (PerkinElmer, Waltham, Mass.). Final enzyme concentrations were 0.1 or 0.015 μg/ml (IKKε) and 0.1 or 0.02 μg/ml (TBK1), representing “normal” and “sensitized” assay conditions respectively. Test compounds (or DMSO solvent as a control) were added prior to initiation of the reactions. Reactions were terminated after 30-45 minutes by adding 3% phosphoric acid. Terminated reactions were transferred to P-81 cellulose phosphate filterplates (Whatman, Inc., Piscataway, N.J.) and washed with 1% phosphoric acid on a vacuum apparatus. After air drying, scintillant (PerkinElmer, Waltham, Mass.) was added and the plates were read on a PerkinElmer TopCount NXT instrument. Counts were normalized to DMSO controls after background subtraction.

[2] = molecular target: T2, IKKε (Homo sapiens, UniProt Q14164); assay: In-vitro IKKε kinase assay ([γ33]ATP filter-plate); type: biochemical
T2 construct: His-tag; made in house; host or cells: Sf9 insect cells
T2 sequence (Q14164 1-716): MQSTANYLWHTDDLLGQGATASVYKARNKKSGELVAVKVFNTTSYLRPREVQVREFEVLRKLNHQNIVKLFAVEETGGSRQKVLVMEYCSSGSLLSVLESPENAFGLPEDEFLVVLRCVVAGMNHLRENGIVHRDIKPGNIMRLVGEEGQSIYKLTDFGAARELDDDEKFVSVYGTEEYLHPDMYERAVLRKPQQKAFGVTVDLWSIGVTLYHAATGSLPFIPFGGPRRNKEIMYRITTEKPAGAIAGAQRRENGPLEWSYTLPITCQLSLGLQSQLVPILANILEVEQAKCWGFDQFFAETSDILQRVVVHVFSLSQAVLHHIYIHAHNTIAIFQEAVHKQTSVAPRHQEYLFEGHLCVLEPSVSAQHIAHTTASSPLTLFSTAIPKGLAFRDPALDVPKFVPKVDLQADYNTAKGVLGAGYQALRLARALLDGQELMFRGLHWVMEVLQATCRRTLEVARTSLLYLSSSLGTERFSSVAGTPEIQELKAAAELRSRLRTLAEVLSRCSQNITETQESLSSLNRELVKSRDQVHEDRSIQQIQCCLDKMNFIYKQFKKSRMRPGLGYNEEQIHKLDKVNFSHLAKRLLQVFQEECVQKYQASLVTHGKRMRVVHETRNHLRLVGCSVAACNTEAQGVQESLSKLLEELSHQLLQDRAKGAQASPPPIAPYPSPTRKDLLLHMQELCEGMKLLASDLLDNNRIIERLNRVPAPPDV
Summary of the method: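 Phosphorylation of casein or myelin basic protein was counted by P-81 filter capture after 30-45 min reactions stopped with phosphoric acid, with counts normalized to DMSO after background subtraction. ATP was twice Km: 60 μM for TBK1 and 32 μM for IKKε, plus [γ33]ATP. Sf9-expressed His-tag enzymes were used at normal/sensitized levels of 0.1/0.02 μg/ml (TBK1) and 0.1/0.015 μg/ml (IKKε).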

[3] = text bins, read-out: IC50 for inhibition of the kinase activity of TBK1
[4] = text bins, read-out: IC50 for inhibition of the kinase activity of IKKε

Row | IC50 [1, 3] | IC50 [2, 4] | IC50 ([1]; Table 3, read-out: TBK1 IC50) | IC50 ([2]; Table 3, read-out: IKKε IC50) | Structure (SMILES)
1 | < 0.01 µM | < 0.005 µM |  |  | COc1cc(Nc2nccc(-c3ccc(OC4CCN(C(C)=O)CC4)c(C#N)c3)n2)cc(OC)c1OC [Example 34, 2-[(1-acetylpiperidin-4-yl)oxy]-5-{2-[(3,4,5-trimethoxyphenyl)amino]pyrimidin-4-yl}benzonitrile]
2 | < 0.01 µM | 0.005 to 0.05 µM |  |  | COc1ccc(-c2ccnc(Nc3ccc(N4CCN(C(C)C)C(=O)C4)c(OC)c3)n2)cc1C#N [Example 38, 2-Methoxy-5-[2-({3-methoxy-4-[3-oxo-4-(propan-2-yl)piperazin-1-yl]phenyl}amino)pyrimidin-4-yl]benzonitrile]
3 | 0.01 to 0.1 µM | 0.05 to 0.5 µM |  |  | COc1ccc(-c2ccnc(Nc3ccc(CN(C)C)cc3)n2)cc1C#N [Example 45, 5-[2-({4-[(Dimethylamino)methyl]phenyl}amino)pyrimidin-4-yl]-2-methoxybenzonitrile]
4 | 0.01 to 0.1 µM | 0.005 to 0.05 µM |  |  | COc1ccc(-c2ccnc(Nc3ccc(OC)c(OC)c3)n2)cc1C#N [Example 48, 5-{2-[(3,4-Dimethoxyphenyl)amino]pyrimidin-4-yl}-2-methoxybenzonitrile]
5 | < 0.01 µM | 0.005 to 0.05 µM |  |  | N#Cc1cc(-c2ccnc(Nc3ccc(N4CCOCC4)cc3)n2)ccc1OC1CCN(CCO)CC1 [Example 49, 2-{[1-(2-Hydroxyethyl)piperidin-4-yl]oxy}-5-(2-{[4-(morpholin-4-yl)phenyl]amino}pyrimidin-4-yl)benzonitrile]
6 | 0.01 to 0.1 µM | 0.005 to 0.05 µM |  |  | N#Cc1cc(-c2ccnc(Nc3ccc(N4CCOCC4)cc3)n2)ccc1NC(=O)C1CCCCC1 [Example 54, N-[2-cyano-4-(2-{[4-(morpholin-4-yl)phenyl]amino}pyrimidin-4-yl)phenyl] cyclohexane-carboxamide]
7 | 0.1 to 0.5 µM | 0.05 to 0.5 µM |  |  | N#Cc1cccc(-c2ccnc(Nc3ccc(N)cc3)n2)c1 [Example 55, 3-{2-[(4-Aminophenyl)amino]pyrimidin-4-yl}benzonitrile]
8 | 0.01 to 0.1 µM | 0.005 to 0.05 µM |  |  | CC(C)NC(=O)Nc1ccc(-c2ccnc(Nc3ccc(N4CCOCC4)cc3)n2)cc1C#N [Example 60, 1-[2-cyano-4-(2-{[4-(morpholin-4-yl)phenyl]amino}pyrimidin-4-yl)phenyl]-3-propan-2-ylurea]
9 | 0.01 to 0.1 µM | 0.005 to 0.05 µM |  |  | COC(=O)C(C)Oc1ccc(-c2ccnc(Nc3ccc(N4CCOCC4)cc3)n2)cc1C#N (stereo not shown) [Example 63, Methyl 2-[2-cyano-4-(2-{[4-(morpholin-4-yl)phenyl]amino}pyrimidin-4-yl)phenoxy] propanoate]
10 | < 0.01 µM | 0.005 to 0.05 µM |  |  | COc1ccc(-c2ccnc(Nc3ccc(N4CCC(N5CCN(C)CC5)CC4)c(OC)c3)n2)cc1C#N [Example 65, 2-Methoxy-5-[2-({3-methoxy-4-[4-(4-methylpiperazin-1-yl)piperidin-1-yl]phenyl}amino)pyrimidin-4-yl]benzonitrile]
11 | 0.01 to 0.1 µM | 0.005 to 0.05 µM |  |  | COc1ccc(-c2ccnc(Nc3cccc(CN(C)CC(=O)N(C)C)c3)n2)cc1C#N [Example 67, N~2~-(3-{[4-(3-Cyano-4-methoxyphenyl)pyrimidin-2-yl]amino}benzyl)-N,N,N~2~- trimethylglycinamide]
12 | < 0.01 µM | < 0.005 µM |  |  | COc1ccc(-c2ccnc(Nc3ccc(N(C)CC(=O)N(C)C)c(OC)c3)n2)cc1C#N [Example 68, N~2~-(4-{[4-(3-Cyano-4-methoxyphenyl)pyrimidin-2-yl]amino}-2-methoxyphenyl)-N,N,N~2~- trimethylglycinamide]
13 | 0.01 to 0.1 µM | 0.005 to 0.05 µM |  |  | COc1ccc(-c2ccnc(Nc3cccc(NC(C)=O)c3)n2)cc1C#N [Example 70, N-(3-{[4-(3-Cyano-4-methoxyphenyl)pyrimidin-2-yl]amino}phenyl) acetamide]
14 | 0.01 to 0.1 µM | 0.005 to 0.05 µM |  |  | COc1ccc(-c2ccnc(Nc3ccc(N4CCNC(=O)C4)cc3)n2)cc1C#N [Example 71, 2-Methoxy-5-(2-{[4-(3-oxopiperazin-1-yl)phenyl]amino}pyrimidin-4-yl)benzonitrile]
15 | < 0.01 µM | < 0.005 µM |  |  | CS(=O)(=O)N1CCC(COc2ccc(-c3ccnc(Nc4ccc(N5CCOCC5)cc4)n3)cc2C#N)CC1 [Example 76, 2-{[1-(methylsulfonyl)piperidin-4-yl]methoxy}-5-(2-{[4-(morpholin-4-yl)phenyl]amino}pyrimidin-4-yl)benzonitrile]
16 | 0.01 to 0.1 µM | 0.005 to 0.05 µM |  |  | COc1cc(Nc2nccc(-c3ccc(OC4CCN(S(C)(=O)=O)CC4)c(C#N)c3)n2)ccc1N1CCOCC1 [Example 79, 5-(2-{[3-methoxy-4-(morpholin-4-yl)phenyl]amino}pyrimidin-4-yl)-2-{[1-(methylsulfonyl)piperidin-4-yl]oxy}benzonitrile]
17 | < 0.01 µM | < 0.005 µM | 0.0004 µM | 0.0008 µM | N#Cc1cc(-c2ccnc(Nc3ccc(N4CCOCC4)cc3)n2)ccc1OC1CCN(S(N)(=O)=O)CC1 [Example 80, 4-[2-cyano-4-(2-{[4-(morpholin-4-yl)phenyl]amino}pyrimidin-4-yl)phenoxy]piperidine-1-sulfonamide]
18 | < 0.01 µM | < 0.005 µM |  |  | CN(C)C(=O)CN(C)c1ccc(Nc2nccc(-c3ccc(OC4CCOCC4)c(C#N)c3)n2)cc1 [Example 82, N~2~-[4-({4-[3-cyano-4-(tetrahydro-2H-pyran-4-yloxy)phenyl]pyrimidin-2-yl}amino)phenyl]-N,N,N~2~- trimethylglycinamide]
19 | 0.01 to 0.1 µM | 0.005 to 0.05 µM |  |  | COc1ccc(Nc2nccc(-c3ccc(C)c(C#N)c3)n2)cc1OC [Example 85, 5-{2-[(3,4-Dimethoxyphenyl)amino]pyrimidin-4-yl}-2-methylbenzonitrile]
20 | 0.01 to 0.1 µM | 0.005 to 0.05 µM |  |  | CC(=O)N1CCC(Oc2ccc(-c3ccnc(Nc4ccc(N5CCOCC5)cc4)n3)cc2C#N)CC1 [Example 86, 2-[(1-Acetylpiperidin-4-yl)oxy]-5-(2-{[4-(morpholin-4-yl)phenyl]amino}pyrimidin-4-yl)benzonitrile]
21 | < 0.01 µM | < 0.005 µM |  |  | COc1cc(Nc2nccc(-c3ccc(NC(=O)C(C)C)c(C#N)c3)n2)ccc1N1CCNC(=O)C1 [Example 88, N-[2-Cyano-4-(2-{[3-methoxy-4-(3-oxopiperazin-1-yl)phenyl]amino}pyrimidin-4-yl)phenyl]-2-methylpropanamide]
22 | 0.01 to 0.1 µM | 0.005 to 0.05 µM |  |  | CN1CCN(c2ccc(Nc3nccc(-c4ccc(OC5CCNC5)c(C#N)c4)n3)cc2)CC1 (stereo not shown) [Example 90, 5-(2-{[4-(4-methylpiperazin-1-yl)phenyl]amino}pyrimidin-4-yl)-2-(pyrrolidin-3-yloxy)benzonitrile]
